Assay results as given in US20020019412A1, “MODULATORS OF PROTEIN TYROSINE PHOSPHATASES (PTPASES)” (priority 1998, published 2002).
Counter-ions that a name gives are not always drawn.

Key:
PTP1B = biological target: T1, PTP1B (Homo sapiens, UniProt P18031); assay: Inhibition of truncated PTP1B, p-nitrophenyl phosphate substrate; type: biochemical; conditions: truncated PTP1B (first 321 amino acids) expressed in E. coli; pNPP substrate; pH 5.5; 25° C., 60 minutes
T1 construct: a truncated form of PTP1B (corresponding to the first 321 amino acids); made in house; host or cells: E. coli
T1 sequence (P18031 1-321): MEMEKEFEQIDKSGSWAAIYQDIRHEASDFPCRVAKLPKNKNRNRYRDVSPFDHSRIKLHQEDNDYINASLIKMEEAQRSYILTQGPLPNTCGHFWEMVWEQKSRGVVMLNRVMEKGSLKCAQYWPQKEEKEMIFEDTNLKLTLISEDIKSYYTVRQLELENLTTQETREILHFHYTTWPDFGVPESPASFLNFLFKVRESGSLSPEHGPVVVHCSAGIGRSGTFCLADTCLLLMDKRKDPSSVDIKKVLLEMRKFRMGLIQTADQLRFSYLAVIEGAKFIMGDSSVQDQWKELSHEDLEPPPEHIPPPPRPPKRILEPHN
Protocol: The compounds are evaluated for biological activity with a truncated form of PTP1B (corresponding to the first 321 amino acids), which is expressed in E. coli and purified to apparent homogeneity using published procedures well-known to those skilled in the art. The enzyme reactions are carried out using standard conditions essentially as described by Burke et al. (Biochemistry 35; 15989-15996 (1996)). The assay conditions are as follows. Appropriate concentrations of the compounds of the invention are added to the reaction mixtures containing different concentrations of the substrate, p-nitrophenyl phosphate (range: 0.16 to 10 mM—final assay concentration). The buffer used is 100 mM sodium acetate pH 5.5, 50 mM sodium chloride, 0.1% (w/v) bovine serum albumin and 5 mM dithiothreitol (total volume […]). The reaction is started by addition of the enzyme and carried out in microtiter plates at 25° C. for 60 minutes. The reactions are stopped by addition of NaOH. The enzyme activity is determined by measurement of the absorbance at 405 nm with appropriate corrections for absorbance at 405 nm of the compounds and p-nitrophenyl phosphate. The data are analyzed using nonlinear regression fit to classical Michaelis Menten enzyme kinetic models. Inhibition is expressed as Ki values in μM.

Structure (SMILES)	melting point	Ki (PTP1B)
O=C(O)C(=O)Nc1c(C(=O)O)sc2ncccc12 (as salt: sodium) [Example 1, 3-(Oxalyl-amino)-thieno[2,3-b]pyridine-2-carboxylic acid, mono sodium salt]	> 250 °C	–
O=C(O)C(=O)Nc1c(C(=O)O)sc2ncccc12 [Example 1, 3-(Oxalyl-amino)-thieno[2,3-b]pyridine-2-carboxylic acid, mono sodium salt]	–	330 µM
